Reference: ChEMBL document CHEMBL1201861, “Genomics of Drug Sensitity in Cancer screening data, Wellcome Trust Sanger Institute”

Tests used:
Test in all cases: cells
Details in all cases: Homo sapiens
CAL-72 = assay type: functional, cell-based;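 further: cell viability assay measuring inhibition of proliferation in the CAL-72 cell line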
Description: SANGER: Inhibition of human CAL-72 cell growth in a cell viability assay.

8305C = assay type: functional, cell-based
Description: SANGER: Inhibition of human 8305C cell growth in a cell viability assay.

CAMA-1 = assay type: functional, cell-based;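 further: growth inhibition of CAMA-1 cells, read out with a cell viability assay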
Description: SANGER: Inhibition of human CAMA-1 cell growth in a cell viability assay.

RVH-421 = assay type: functional, cell-based
Description: SANGER: Inhibition of human RVH-421 cell growth in a cell viability assay.

D-392MG = assay type: functional, cell-based
NCI-H2122 = assay type: functional, cell-based;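 further: growth inhibition of the cells, read out with a cell viability assay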
Description: SANGER: Inhibition of human NCI-H2122 cell growth in a cell viability assay.

MDA-MB-415 = assay type: functional, cell-based
HCC1806 = assay type: functional, cell-based;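 further: growth inhibition of the cancer cell line, determined with a cell viability assay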
Description: SANGER: Inhibition of human HCC1806 cell growth in a cell viability assay.

786-0 = assay type: functional, cell-based
Description: SANGER: Inhibition of human 786-0 cell growth in a cell viability assay.

NCI-H1693 = assay type: functional, cell-based;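 further: growth inhibition of the human cell line, read out with a cell viability assay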
Description: SANGER: Inhibition of human NCI-H1693 cell growth in a cell viability assay.

COLO-680N = assay type: functional, cell-based;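 further: cell viability assay used to measure inhibition of COLO-680N cell growth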
Description: SANGER: Inhibition of human COLO-680N cell growth in a cell viability assay.

OAW-28 = assay type: functional, cell-based;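 further: growth inhibition of OAW-28 cells, read out with a cell viability assay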
Description: SANGER: Inhibition of human OAW-28 cell growth in a cell viability assay.

DBTRG-05MG = assay type: functional, cell-based;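 further: cell viability assay measuring growth inhibition of human DBTRG-05MG cells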
Description: SANGER: Inhibition of human DBTRG-05MG cell growth in a cell viability assay.

NCI-H2405 = assay type: functional, cell-based;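 further: growth inhibition of the human cell line, read out with a cell viability assay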
Description: SANGER: Inhibition of human NCI-H2405 cell growth in a cell viability assay.

FaDu = assay type: functional, cell-based;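 further: cell viability readout of growth inhibition in FaDu cells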
Description: SANGER: Inhibition of human FADU cell growth in a cell viability assay.

COLO-678 = assay type: functional, cell-based
Description: SANGER: Inhibition of human COLO-678 cell growth in a cell viability assay.

LU-99A = assay type: functional, cell-based;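 further: growth inhibition of LU-99A cells, read out with a cell viability assay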
Description: SANGER: Inhibition of human LU-99A cell growth in a cell viability assay.

LK-2 = assay type: functional, cell-based;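 further: growth inhibition of LK-2 cells, read out with a viability assay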
Description: SANGER: Inhibition of human LK-2 cell growth in a cell viability assay.

HCC1954 = assay type: functional, cell-based;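 further: growth inhibition of human HCC1954 cells, read out with a cell viability assay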
Description: SANGER: Inhibition of human HCC1954 cell growth in a cell viability assay.

RPMI-7951 = assay type: functional, cell-based
Description: SANGER: Inhibition of human RPMI-7951 cell growth in a cell viability assay.

HT1197 = assay type: functional, cell-based, HT-1197
Description: SANGER: Inhibition of human HT-1197 cell growth in a cell viability assay.

SW948 = assay type: functional, cell-based;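 further: growth inhibition of SW948 cells, read out with a cell viability assay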
Description: SANGER: Inhibition of human SW948 cell growth in a cell viability assay.

HCC70 = assay type: functional, cell-based;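 further: cell viability assay measuring how strongly the compound suppresses proliferation of HCC70 cells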
Description: SANGER: Inhibition of human HCC70 cell growth in a cell viability assay.

HMV-2 cell line = assay type: functional, cell-based;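 further: growth inhibition of HMV-II cells, read out with a cell viability assay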
Description: SANGER: Inhibition of human HMV-II cell growth in a cell viability assay.

HSC-4 = assay type: functional, cell-based;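 further: growth inhibition of human HSC-4 cells, read out with a cell viability assay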
Description: SANGER: Inhibition of human HSC-4 cell growth in a cell viability assay.

NCI-H520 = assay type: functional, cell-based;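 further: growth inhibition of NCI-H520 cells, measured by a cell viability assay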
Description: SANGER: Inhibition of human NCI-H520 cell growth in a cell viability assay.

SAS = assay type: functional, cell-based;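 further: growth inhibition of SAS cells, read out with a cell viability assay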
Description: SANGER: Inhibition of human SAS cell growth in a cell viability assay.

ASPC1 = assay type: functional, cell-based;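 further: growth inhibition of AsPC-1 cells, read out with a cell viability assay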
Description: SANGER: Inhibition of human AsPC-1 cell growth in a cell viability assay.

CAL-120 = assay type: functional, cell-based;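 further: cell growth inhibition, read out as cell viability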
Description: SANGER: Inhibition of human CAL-120 cell growth in a cell viability assay.

MFE-280 = assay type: functional, cell-based;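 further: growth inhibition of MFE-280 cells, determined with a cell viability readout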
Description: SANGER: Inhibition of human MFE-280 cell growth in a cell viability assay.

ESS-1 = assay type: functional, cell-based;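 further: growth inhibition of human ESS-1 cells, read out by a cell viability assay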
Description: SANGER: Inhibition of human ESS-1 cell growth in a cell viability assay.

FTC-133 = assay type: functional, cell-based
EGI-1 = assay type: functional, cell-based;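 further: cell viability readout used to gauge growth inhibition of EGI-1 cells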
Description: SANGER: Inhibition of human EGI-1 cell growth in a cell viability assay.

NB17 = assay type: functional, cell-based;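 further: growth inhibition of NB17 cells, read out with a cell viability assay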
Description: SANGER: Inhibition of human NB17 cell growth in a cell viability assay.

P12-Ichikawa = assay type: functional, cell-based
SW1573 = assay type: functional, cell-based;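 further: growth inhibition of SW1573 cells, read out with a cell viability assay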
Description: SANGER: Inhibition of human SW1573 cell growth in a cell viability assay.

Capan-2 = assay type: functional, cell-based;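 further: Capan-2 cell growth inhibition, read out with a viability assay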
Description: SANGER: Inhibition of human Capan-2 cell growth in a cell viability assay.

NCI-H1793 = assay type: functional, cell-based;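 further: cell growth inhibition, read out by a cell viability assay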
Description: SANGER: Inhibition of human NCI-H1793 cell growth in a cell viability assay.

HGC-27 = assay type: functional, cell-based;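 further: growth inhibition of human HGC-27 cells, read out in a cell viability assay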
Description: SANGER: Inhibition of human HGC-27 cell growth in a cell viability assay.

VM-CUB-1 = assay type: functional, cell-based;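 further: cell viability assay measuring growth inhibition of the human VM-CUB-1 cell line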
Description: SANGER: Inhibition of human VM-CUB-1 cell growth in a cell viability assay.

HLE = assay type: functional, cell-based;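 further: growth inhibition of human HLE cells, read out by a cell viability assay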
Description: SANGER: Inhibition of human HLE cell growth in a cell viability assay.

NCI-H358 = assay type: functional, cell-based;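 further: growth inhibition of NCI-H358 human cells, read out with a cell viability assay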
Description: SANGER: Inhibition of human NCI-H358 cell growth in a cell viability assay.

SW1783 = assay type: functional, cell-based;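 further: cell growth inhibition measured with a viability assay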
Description: SANGER: Inhibition of human SW1783 cell growth in a cell viability assay.

MDA-MB-453 = assay type: functional, cell-based
Description: SANGER: Inhibition of human MDA-MB-453 cell growth in a cell viability assay.

NCI-H596 = assay type: functional, cell-based;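 further: growth inhibition of NCI-H596 cells, read out with a cell viability assay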
Description: SANGER: Inhibition of human NCI-H596 cell growth in a cell viability assay.

SCC-25 = assay type: functional, cell-based;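 further: growth inhibition of SCC-25 cells, measured with a cell viability assay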
Description: SANGER: Inhibition of human SCC-25 cell growth in a cell viability assay.

T84 = assay type: functional, cell-based;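 further: growth inhibition measured with a cell viability readout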
Description: SANGER: Inhibition of human T84 cell growth in a cell viability assay.

KYSE-520 cell line = assay type: functional, cell-based;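 further: growth inhibition of human KYSE-520 cells, read out with a viability assay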
Description: SANGER: Inhibition of human KYSE-520 cell growth in a cell viability assay.

HuCCT-1 = assay type: functional, cell-based, HuCCT1;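 further: growth inhibition of HuCCT-1 cells, read out by a cell viability assay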
Description: SANGER: Inhibition of human HuCCT1 cell growth in a cell viability assay.

RCM-1 = assay type: functional, cell-based;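 further: growth inhibition of the RCM-1 line, determined with a cell viability readout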
Description: SANGER: Inhibition of human RCM-1 cell growth in a cell viability assay.

For `Cn1cc(/C=C2\C(=O)Nc3cccnc32)c2ccccc21`, which IC50 (CAL-72) is on record?
Its IC50 is greater than 2000 nM.

And the IC50 (8305C)?
Its IC50 is greater than 2000 nM.

And the IC50 (CAMA-1)?
The IC50 was greater than 2000 nM.

And the IC50 (RVH-421)?
Its IC50 is greater than 2000 nM.

What about the IC50 (D-392MG) of the same compound?
The IC50 was greater than 2000 nM.

What about the IC50 (NCI-H2122) of the same compound?
Its IC50 is greater than 2000 nM.

And the IC50 (MDA-MB-415)?
The IC50 was greater than 2000 nM.

What about the IC50 (HCC1806) of the same compound?
The IC50 was greater than 2000 nM.

And the IC50 (786-0)?
Its IC50 is greater than 2000 nM.

What about the IC50 (NCI-H1693) of the same compound?
Its IC50 is greater than 2000 nM.

What about the IC50 (COLO-680N) of the same compound?
Its IC50 is greater than 2000 nM.

And the IC50 (OAW-28)?
Its IC50 is greater than 2000 nM.

What about the IC50 (DBTRG-05MG) of the same compound?
The IC50 was greater than 2000 nM.

What about the IC50 (NCI-H2405) of the same compound?
The IC50 was greater than 2000 nM.

What about the IC50 (FaDu) of the same compound?
Its IC50 is greater than 2000 nM.

And the IC50 (COLO-678)?
Its IC50 is greater than 2000 nM.

What about the IC50 (LU-99A) of the same compound?
Its IC50 is greater than 2000 nM.

What about the IC50 (LK-2) of the same compound?
The IC50 was greater than 2000 nM.

What about the IC50 (HCC1954) of the same compound?
The IC50 was greater than 2000 nM.

And the IC50 (RPMI-7951)?
The IC50 was greater than 2000 nM.

And the IC50 (HT1197)?
Its IC50 is greater than 2000 nM.

What about the IC50 (SW948) of the same compound?
Its IC50 is greater than 2000 nM.

What about the IC50 (HCC70) of the same compound?
Its IC50 is greater than 2000 nM.

And the IC50 (HMV-2 cell line)?
Its IC50 is greater than 2000 nM.

What about the IC50 (HSC-4) of the same compound?
The IC50 was 1950 nM.

What about the IC50 (NCI-H520) of the same compound?
The IC50 was greater than 2000 nM.

And the IC50 (SAS)?
Its IC50 is greater than 2000 nM.

What about the IC50 (ASPC1) of the same compound?
Its IC50 is greater than 2000 nM.

And the IC50 (CAL-120)?
The IC50 was greater than 2000 nM.

And the IC50 (MFE-280)?
Its IC50 is greater than 2000 nM.

What about the IC50 (ESS-1) of the same compound?
The IC50 was greater than 2000 nM.

And the IC50 (FTC-133)?
Its IC50 is greater than 2000 nM.

What about the IC50 (EGI-1) of the same compound?
Its IC50 is greater than 2000 nM.

And the IC50 (NB17)?
Its IC50 is greater than 2000 nM.

What about the IC50 (P12-Ichikawa) of the same compound?
The IC50 was greater than 2000 nM.

What about the IC50 (SW1573) of the same compound?
The IC50 was greater than 2000 nM.

What about the IC50 (Capan-2) of the same compound?
The IC50 was greater than 2000 nM.

What about the IC50 (NCI-H1793) of the same compound?
Its IC50 is greater than 2000 nM.

What about the IC50 (HGC-27) of the same compound?
The IC50 was greater than 2000 nM.

What about the IC50 (VM-CUB-1) of the same compound?
Its IC50 is greater than 2000 nM.

And the IC50 (HLE)?
Its IC50 is greater than 2000 nM.

What about the IC50 (NCI-H358) of the same compound?
The IC50 was greater than 2000 nM.

What about the IC50 (SW1783) of the same compound?
The IC50 was greater than 2000 nM.

And the IC50 (MDA-MB-453)?
The IC50 was greater than 2000 nM.

And the IC50 (NCI-H596)?
The IC50 was greater than 2000 nM.

And the IC50 (SCC-25)?
The IC50 was greater than 2000 nM.

What about the IC50 (T84) of the same compound?
The IC50 was greater than 2000 nM.

And the IC50 (KYSE-520 cell line)?
The IC50 was greater than 2000 nM.

And the IC50 (HuCCT-1)?
The IC50 was greater than 2000 nM.

What about the IC50 (RCM-1) of the same compound?
Its IC50 is greater than 2000 nM.

How did the IC50 (CAL-72) turn out when `COc1cc(Nc2c(C#N)cnc3cc(OCCCN4CCN(C)CC4)c(OC)cc23)c(Cl)cc1Cl` [BOSUTINIB] was run?
Its IC50 is greater than 2000 nM.

What about the IC50 (8305C) of the same compound?
Its IC50 is greater than 2000 nM.

And the IC50 (CAMA-1)?
The IC50 was greater than 2000 nM.

And the IC50 (RVH-421)?
The IC50 was greater than 2000 nM.

And the IC50 (D-392MG)?
The IC50 was greater than 2000 nM.

And the IC50 (NCI-H2122)?
The IC50 was greater than 2000 nM.

What about the IC50 (MDA-MB-415) of the same compound?
The IC50 was greater than 2000 nM.

And the IC50 (HCC1806)?
The IC50 was 352 nM.

And the IC50 (786-0)?
Its IC50 is greater than 2000 nM.

And the IC50 (NCI-H1693)?
The IC50 was 2000 nM.

And the IC50 (COLO-680N)?
Its IC50 is greater than 2000 nM.

And the IC50 (OAW-28)?
The IC50 was greater than 2000 nM.

And the IC50 (DBTRG-05MG)?
The IC50 was greater than 2000 nM.

What about the IC50 (NCI-H2405) of the same compound?
Its IC50 is greater than 2000 nM.

And the IC50 (FaDu)?
The IC50 was greater than 2000 nM.

And the IC50 (COLO-678)?
The IC50 was greater than 2000 nM.

What about the IC50 (LU-99A) of the same compound?
The IC50 was greater than 2000 nM.

What about the IC50 (LK-2) of the same compound?
Its IC50 is greater than 2000 nM.

And the IC50 (HCC1954)?
The IC50 was greater than 2000 nM.

And the IC50 (RPMI-7951)?
Its IC50 is greater than 2000 nM.

What about the IC50 (HT1197) of the same compound?
The IC50 was greater than 2000 nM.

What about the IC50 (SW948) of the same compound?
Its IC50 is greater than 2000 nM.

And the IC50 (HCC70)?
The IC50 was greater than 2000 nM.

What about the IC50 (HMV-2 cell line) of the same compound?
Its IC50 is greater than 2000 nM.

What about the IC50 (HSC-4) of the same compound?
Its IC50 is 172 nM.

What about the IC50 (NCI-H520) of the same compound?
Its IC50 is greater than 2000 nM.

What about the IC50 (SAS) of the same compound?
The IC50 was greater than 2000 nM.

And the IC50 (ASPC1)?
The IC50 was greater than 2000 nM.

What about the IC50 (CAL-120) of the same compound?
Its IC50 is greater than 2000 nM.

What about the IC50 (MFE-280) of the same compound?
The IC50 was greater than 2000 nM.

And the IC50 (ESS-1)?
Its IC50 is greater than 2000 nM.

And the IC50 (FTC-133)?
The IC50 was greater than 2000 nM.

What about the IC50 (EGI-1) of the same compound?
The IC50 was greater than 2000 nM.

What about the IC50 (NB17) of the same compound?
The IC50 was greater than 2000 nM.

And the IC50 (P12-Ichikawa)?
The IC50 was greater than 2000 nM.

What about the IC50 (SW1573) of the same compound?
Its IC50 is greater than 2000 nM.

And the IC50 (Capan-2)?
Its IC50 is greater than 2000 nM.

What about the IC50 (NCI-H1793) of the same compound?
The IC50 was greater than 2000 nM.

And the IC50 (HGC-27)?
Its IC50 is greater than 2000 nM.

And the IC50 (VM-CUB-1)?
The IC50 was greater than 2000 nM.

And the IC50 (HLE)?
The IC50 was greater than 2000 nM.

And the IC50 (NCI-H358)?
The IC50 was greater than 2000 nM.

And the IC50 (SW1783)?
Its IC50 is greater than 2000 nM.

What about the IC50 (MDA-MB-453) of the same compound?
Its IC50 is greater than 2000 nM.

And the IC50 (NCI-H596)?
Its IC50 is greater than 2000 nM.

And the IC50 (SCC-25)?
Its IC50 is greater than 2000 nM.

What about the IC50 (T84) of the same compound?
Its IC50 is greater than 2000 nM.

And the IC50 (KYSE-520 cell line)?
Its IC50 is greater than 2000 nM.

And the IC50 (HuCCT-1)?
The IC50 was greater than 2000 nM.

And the IC50 (RCM-1)?
The IC50 was greater than 2000 nM.
